In patent publication US9029325B2, “Amylin analogues and pharmaceutical compositions thereof” (Novo Nordisk A/S, priority 2011, dated 2015):
Starred links: 1 amine or outer side, 2 acyl side, 3 side chain; linkers in the order of their positions; H or OH if unused. Positions of bridges follow the written chain, without caps; N, C: chain ends. Residues, ends and D or L forms follow the SMILES beside them. *: point of attachment. C20 diacid = O=C(O)CCCCCCCCCCCCCCCCCCC(=O)*; C18 diacid = O=C(O)CCCCCCCCCCCCCCCCC(=O)*; γGlu = O=C(O)[C@H](CCC(=O)[*:2])N[*:1]

Experiment: Assay (I) efficacy testing on appetite (food intake), ad libitum fed rat model
Format: in vivo, Sprague Dawley (SD) rats
Summary of the method: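 Single ip, po or sc dosing (0.01-3 mg/kg, by body weight) at the start of the dark phase, in individually housed Sprague Dawley rats of 200-250 g with free food and water. Intake was logged per rat each hour to 7 h, then at 24 h (occasionally 48 h), against a vehicle group; outliers removed by Grubbs test.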

Row | Compound | Food intake reduction 0-24 h 3 nmol/kg (%) (0-24 h) | Food intake reduction 24-48 h 3 nmol/kg (%) (24-48 h) | Food intake reduction 0-24 h 30 nmol/kg (%) (30 nmol/kg, 0-24 h) | Food intake reduction 24-48 h 30 nmol/kg (%) (30 nmol/kg, 24-48 h)
1 | CC[C@H](C)[C@H](NC(=O)[C@@H]1CCCN1C(=O)CNC(=O)[C@H](Cc1ccccc1)NC(=O)[C@H](CC(N)=O)NC(=O)[C@H](CC(N)=O)NC(=O)[C@H](CO)NC(=O)[C@H](CO)NC(=O)[C@H](Cc1c[nH]cn1)NC(=O)[C@H](Cc1c[nH]cn1)NC(=O)[C@H](CC(C)C)NC(=O)[C@H](Cc1ccccc1)NC(=O)[C@H](CCC(=O)O)NC(=O)[C@H](C)NC(=O)[C@H](CC(C)C)NC(=O)[C@H](CCCNC(=N)N)NC(=O)[C@H](CCC(N)=O)NC(=O)[C@@H](NC(=O)[C@H](C)NC(=O)[C@@H]1CSSC[C@H](NC(=O)[C@H](CCCCN)NC(=O)CC[C@H](NC(=O)CCCCCCCCCCCCCCCCC(=O)O)C(=O)O)C(=O)N[C@@H](CC(N)=O)C(=O)N[C@@H]([C@@H](C)O)C(=O)N[C@@H](C)C(=O)N[C@@H]([C@@H](C)O)C(=O)N1)[C@@H](C)O)C(=O)N[C@@H](CC(C)C)C(=O)N1CCC[C@H]1C(=O)N1CCC[C@H]1C(=O)N[C@H](C(=O)N[C@@H](CC(N)=O)C(=O)N[C@H](C(=O)NCC(=O)N[C@@H](CO)C(=O)N[C@@H](CC(N)=O)C(=O)N[C@H](C(=O)N[C@@H](Cc1ccc(O)cc1)C(N)=O)[C@@H](C)O)C(C)C)[C@@H](C)O [compound 46] ({C18 diacid-γGlu}-KCNTATCATQRLAEFLHHSSNNFGPILPPTNVGSNTY-NH2; disulfide 2-7 (inferred); C-terminus assumed) | 54 | 27 |  | 
2 | CC[C@H](C)[C@H](NC(=O)[C@@H]1CCCN1C(=O)CNC(=O)[C@H](Cc1ccccc1)NC(=O)[C@H](CC(N)=O)NC(=O)[C@H](CC(N)=O)NC(=O)[C@H](CO)NC(=O)[C@H](CO)NC(=O)[C@H](Cc1c[nH]cn1)NC(=O)[C@H](CCCNC(=N)N)NC(=O)[C@H](CC(C)C)NC(=O)[C@H](Cc1ccccc1)NC(=O)[C@H](CCC(=O)O)NC(=O)[C@H](C)NC(=O)[C@H](CC(C)C)NC(=O)[C@H](CCCNC(=N)N)NC(=O)[C@H](CCC(N)=O)NC(=O)[C@@H](NC(=O)[C@H](C)NC(=O)[C@@H]1CSSC[C@H](NC(=O)[C@H](Cc2c[nH]cn2)NC(=O)[C@H](Cc2c[nH]cn2)NC(=O)[C@H](Cc2c[nH]cn2)NC(=O)CC[C@H](NC(=O)CCCCCCCCCCCCCCCCCCC(=O)O)C(=O)O)C(=O)N[C@@H](CC(N)=O)C(=O)N[C@@H]([C@@H](C)O)C(=O)N[C@@H](C)C(=O)N[C@@H]([C@@H](C)O)C(=O)N1)[C@@H](C)O)C(=O)N[C@@H](CC(C)C)C(=O)N1CCC[C@H]1C(=O)N1CCC[C@H]1C(=O)N[C@H](C(=O)N[C@@H](CC(N)=O)C(=O)N[C@H](C(=O)NCC(=O)N[C@@H](CO)C(=O)N[C@@H](CC(N)=O)C(=O)N[C@H](C(=O)N[C@@H](Cc1ccc(O)cc1)C(N)=O)[C@@H](C)O)C(C)C)[C@@H](C)O [compound 12] ({C20 diacid-γGlu}-HHHCNTATCATQRLAEFLRHSSNNFGPILPPTNVGSNTY-NH2; disulfide 4-9) |  |  | 70 | 45
3 | CC[C@H](C)[C@H](NC(=O)[C@@H]1CCCN1C(=O)CNC(=O)[C@H](Cc1ccccc1)NC(=O)[C@H](CC(N)=O)NC(=O)[C@H](CC(N)=O)NC(=O)[C@H](CO)NC(=O)[C@H](CO)NC(=O)[C@H](Cc1c[nH]cn1)NC(=O)[C@H](Cc1c[nH]cn1)NC(=O)[C@H](CC(C)C)NC(=O)[C@H](Cc1ccccc1)NC(=O)[C@H](CCC(=O)O)NC(=O)[C@H](C)NC(=O)[C@H](CC(C)C)NC(=O)[C@H](CCCNC(=N)N)NC(=O)[C@H](CCC(N)=O)NC(=O)[C@@H](NC(=O)[C@H](C)NC(=O)[C@@H]1CSSC[C@H](NC(=O)[C@H](CCC(=O)O)NC(=O)CC[C@H](NC(=O)CCCCCCCCCCCCCCCCCCC(=O)O)C(=O)O)C(=O)N[C@@H](CC(N)=O)C(=O)N[C@@H]([C@@H](C)O)C(=O)N[C@@H](C)C(=O)N[C@@H]([C@@H](C)O)C(=O)N1)[C@@H](C)O)C(=O)N[C@@H](CC(C)C)C(=O)N1CCC[C@H]1C(=O)N1CCC[C@H]1C(=O)N[C@H](C(=O)N[C@@H](CC(N)=O)C(=O)N[C@H](C(=O)NCC(=O)N[C@@H](CO)C(=O)N[C@@H](CC(N)=O)C(=O)N[C@H](C(=O)N[C@@H](Cc1ccc(O)cc1)C(N)=O)[C@@H](C)O)C(C)C)[C@@H](C)O [compound 29] ({C20 diacid-γGlu}-ECNTATCATQRLAEFLHHSSNNFGPILPPTNVGSNTY-NH2; disulfide 2-7) | 15 | 5 |  | 
4 | CC[C@H](C)[C@H](NC(=O)[C@@H]1CCCN1C(=O)CNC(=O)[C@H](Cc1ccccc1)NC(=O)[C@H](CO)NC(=O)[C@H](CO)NC(=O)[C@H](CO)NC(=O)[C@H](CO)NC(=O)[C@H](CCCNC(=N)N)NC(=O)[C@H](Cc1c[nH]cn1)NC(=O)[C@H](CC(C)C)NC(=O)[C@H](Cc1ccccc1)NC(=O)[C@H](CCC(=O)O)NC(=O)[C@H](C)NC(=O)[C@H](CC(C)C)NC(=O)[C@H](CCCNC(=N)N)NC(=O)[C@H](CCC(N)=O)NC(=O)[C@@H](NC(=O)[C@H](C)NC(=O)[C@@H]1CSSC[C@H](NC(=O)[C@H](Cc2c[nH]cn2)NC(=O)CC[C@H](NC(=O)CCCCCCCCCCCCCCCCCCC(=O)O)C(=O)O)C(=O)N[C@@H](CC(N)=O)C(=O)N[C@@H]([C@@H](C)O)C(=O)N[C@@H](C)C(=O)N[C@@H]([C@@H](C)O)C(=O)N1)[C@@H](C)O)C(=O)N[C@@H](CC(C)C)C(=O)N1CCC[C@H]1C(=O)N1CCC[C@H]1C(=O)N[C@H](C(=O)N[C@@H](CC(=O)O)C(=O)N[C@H](C(=O)NCC(=O)N[C@@H](CO)C(=O)N[C@@H](CC(=O)O)C(=O)N[C@H](C(=O)N[C@@H](Cc1ccc(O)cc1)C(N)=O)[C@@H](C)O)C(C)C)[C@@H](C)O [compound 9] ({C20 diacid-γGlu}-HCNTATCATQRLAEFLHRSSSSFGPILPPTDVGSDTY-NH2; disulfide 2-7 (inferred); C-terminus assumed) | 39 | 32 |  | 
5 | CC[C@H](C)[C@H](NC(=O)[C@@H]1CCCN1C(=O)CNC(=O)[C@H](Cc1ccccc1)NC(=O)[C@H](CC(N)=O)NC(=O)[C@H](CC(N)=O)NC(=O)[C@H](CO)NC(=O)[C@H](CO)NC(=O)[C@H](Cc1c[nH]cn1)NC(=O)[C@H](Cc1c[nH]cn1)NC(=O)[C@H](CC(C)C)NC(=O)[C@H](Cc1ccccc1)NC(=O)[C@H](CCC(=O)O)NC(=O)[C@H](C)NC(=O)[C@H](CC(C)C)NC(=O)[C@H](CCCNC(=N)N)NC(=O)[C@H](CCC(N)=O)NC(=O)[C@@H](NC(=O)[C@H](C)NC(=O)[C@@H]1CSSC[C@H](NC(=O)[C@H](CCCCN)NC(=O)[C@H](CCC(=O)O)NC(=O)CC[C@H](NC(=O)CCCCCCCCCCCCCCCCCCC(=O)O)C(=O)O)C(=O)N[C@@H](CC(N)=O)C(=O)N[C@@H]([C@@H](C)O)C(=O)N[C@@H](C)C(=O)N[C@@H]([C@@H](C)O)C(=O)N1)[C@@H](C)O)C(=O)N[C@@H](CC(C)C)C(=O)N1CCC[C@H]1C(=O)N1CCC[C@H]1C(=O)N[C@H](C(=O)N[C@@H](CC(N)=O)C(=O)N[C@H](C(=O)NCC(=O)N[C@@H](CO)C(=O)N[C@@H](CC(N)=O)C(=O)N[C@H](C(=O)N[C@@H](Cc1ccc(O)cc1)C(N)=O)[C@@H](C)O)C(C)C)[C@@H](C)O [compound 26] ({C20 diacid-γGlu}-EKCNTATCATQRLAEFLHHSSNNFGPILPPTNVGSNTY-NH2; disulfide 3-8) | 46 | 39 |  | 
